{"source": "patent US9308182B2", "about": "(TEVA PHARMACEUTICAL INDUSTRIES, LTD., priority 2012, dated 2016)", "target": "MAO-A (Rattus norvegicus, UniProt P21396)", "sequence (P21396 whole entry)": "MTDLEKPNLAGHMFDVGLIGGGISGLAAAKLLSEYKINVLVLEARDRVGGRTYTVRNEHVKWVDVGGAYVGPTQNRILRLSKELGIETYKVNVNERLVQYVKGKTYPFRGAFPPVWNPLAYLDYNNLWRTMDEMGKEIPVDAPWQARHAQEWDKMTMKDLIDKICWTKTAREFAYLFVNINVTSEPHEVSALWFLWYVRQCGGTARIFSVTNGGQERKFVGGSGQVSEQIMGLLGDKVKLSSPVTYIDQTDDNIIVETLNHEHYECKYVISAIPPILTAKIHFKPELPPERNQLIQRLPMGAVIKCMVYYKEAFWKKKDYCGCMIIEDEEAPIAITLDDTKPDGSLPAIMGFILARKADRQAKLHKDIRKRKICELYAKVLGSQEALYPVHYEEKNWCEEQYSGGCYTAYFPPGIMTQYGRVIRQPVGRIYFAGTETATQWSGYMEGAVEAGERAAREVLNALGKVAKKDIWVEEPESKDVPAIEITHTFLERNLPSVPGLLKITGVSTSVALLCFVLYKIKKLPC", "assay": "in vivo", "details": "for MAO-A activity, brain / MAO-A activity, intestine / MAO-A activity, liver: two weeks; for MAO-A inhibition in the intestine: three lowest doses 0.02-0.1 mg/kg/day (salt); for inhibition at 0.02 mg/kg/day / inhibition at 0.05 mg/kg/day / inhibition at 0.1 mg/kg/day / inhibition at 0.2 mg/kg/day / inhibition at 0.4 mg/kg/day / inhibition at 0.8 mg/kg/day: rat", "source_text": "ALZET® osmotic minipumps are described in Perkins L, Peer C, and Murphy-Hackley P. “Chapter 21: The use of mini-osmotic pumps in continuous infusion studies” in Handbook of Pre-Clinical Continuous Intravenous Infusion, (Smith & Healing, eds., Taylor and Francis, 2000), the contents of which are incorporated herein by reference.\nThe osmotic minipumps were inserted subcutaneously with a single surgical procedure: after clipping the fur from the dorsal area and cleaning the skin with antiseptic skin preparation, about 1 cm long incision was made on the dorsum of the animal, midway between both scappulae. The pump was placed along the axis of the body to one side of the backbone. The incision was positioned about 1-2 cm caudal to the estimated caudal end of the minipump when it is in place.\nAfter two weeks of treatment the animals were sacrificed. From each rat, brain (half) and a part of liver were dissected and frozen. The intestine was excised about ½ cm below the stomach about 1-2 cm long, washed with sucrose 0.32 Molar and frozen at −70° C.\nTissue homogenates were pre incubated (37° C.) in the presence of clorgyline or deprenyl to inhibit the activity of MAO-A or MAO-B respectively. For MAO-B determination, samples were incubated for 20 minutes with C^14 PEA 10 μM and for MAO-A determination samples were incubated 30 minutes with C^14 −5HT 100 μM as substrate Termination of the reaction was done by acidification. The labeled metabolites were extracted into toluene:ethyl acetate, and counted in a β counter.", "key": {"[1]": {"details": "po, read-out: Percent of MAO-A inhibition, brain"}, "[2]": {"details": "po, read-out: Percent of MAO-A inhibition, intestine"}, "[3]": {"details": "po, read-out: Percent of MAO-A inhibition, liver"}, "[4]": {"details": "sc, read-out: Percent of MAO-A inhibition, brain"}, "[5]": {"details": "sc, read-out: Percent of MAO-A inhibition, intestine"}}, "note": "Read-outs that look alike come from different tables or passages of the source."}
{"smiles": "C#CCN[C@@H]1CCc2ccccc21", "note": "[rasagiline, R(+)-N-propargyl-l-aminoindan]", "values": [{"measurement": "dose dependence of MAO-A inhibition", "setting": "all tissues (intestine, brain, liver)", "value": "Dose Dependent"}, {"measurement": "MAO-A inhibition in the brain, ALZET pumps compared with oral administration", "setting": "brain", "value": "higher"}, {"measurement": "MAO-A activity, brain", "setting": "brain, oral, 0.02 mg/kg/day (salt)", "value": 3441, "unit": "dpm"}, {"measurement": "MAO-A activity, brain", "setting": "brain, oral, 0.05 mg/kg/day (salt)", "value": 3031, "unit": "dpm"}, {"measurement": "MAO-A activity, brain", "setting": "brain, oral, 0.1 mg/kg/day (salt)", "value": 2822, "unit": "dpm"}, {"measurement": "MAO-A activity, brain", "setting": "brain, oral, 0.2 mg/kg/day (salt)", "value": 2319, "unit": "dpm"}, {"measurement": "MAO-A activity, brain", "setting": "brain, oral, 0.4 mg/kg/day (salt)", "value": 1417, "unit": "dpm"}, {"measurement": "MAO-A activity, brain", "setting": "brain, oral, 0.8 mg/kg/day (salt)", "value": 803, "unit": "dpm"}, {"measurement": "MAO-A activity, brain", "setting": "brain, sc ALZET pumps, 0.02 mg/kg/day (salt)", "value": 3479, "unit": "dpm"}, {"measurement": "MAO-A activity, brain", "setting": "brain, sc ALZET pumps, 0.05 mg/kg/day (salt)", "value": 2974, "unit": "dpm"}, {"measurement": "MAO-A activity, brain", "setting": "brain, sc ALZET pumps, 0.1 mg/kg/day (salt)", "value": 2595, "unit": "dpm"}, {"measurement": "MAO-A activity, brain", "setting": "brain, sc ALZET pumps, 0.2 mg/kg/day (salt)", "value": 1613, "unit": "dpm"}, {"measurement": "MAO-A activity, brain", "setting": "brain, sc ALZET pumps, 0.4 mg/kg/day (salt)", "value": 917, "unit": "dpm"}, {"measurement": "MAO-A activity, brain", "setting": "brain, sc ALZET pumps, 0.8 mg/kg/day (salt)", "value": 466, "unit": "dpm"}, {"measurement": "MAO-A inhibition in the intestine, subcutaneous pumps compared with oral administration", "setting": "intestine, 14 days, differences statistically significant", "value": "lower"}, {"measurement": "MAO-A activity, intestine", "setting": "intestine, oral, 0.02 mg/kg/day (salt)", "value": 2712, "unit": "dpm"}, {"measurement": "MAO-A activity, intestine", "setting": "intestine, oral, 0.05 mg/kg/day (salt)", "value": 2607, "unit": "dpm"}, {"measurement": "MAO-A activity, intestine", "setting": "intestine, oral, 0.1 mg/kg/day (salt)", "value": 2308, "unit": "dpm"}, {"measurement": "MAO-A activity, intestine", "setting": "intestine, oral, 0.2 mg/kg/day (salt)", "value": 1891, "unit": "dpm"}, {"measurement": "MAO-A activity, intestine", "setting": "intestine, oral, 0.4 mg/kg/day (salt)", "value": 1194, "unit": "dpm"}, {"measurement": "MAO-A activity, intestine", "setting": "intestine, oral, 0.8 mg/kg/day (salt)", "value": 785, "unit": "dpm"}, {"measurement": "MAO-A activity, intestine", "setting": "intestine, sc ALZET pumps, 0.02 mg/kg/day (salt)", "value": 3199, "unit": "dpm"}, {"measurement": "MAO-A activity, intestine", "setting": "intestine, sc ALZET pumps, 0.05 mg/kg/day (salt)", "value": 2831, "unit": "dpm"}, {"measurement": "MAO-A activity, intestine", "setting": "intestine, sc ALZET pumps, 0.1 mg/kg/day (salt)", "value": 3029, "unit": "dpm"}, {"measurement": "MAO-A activity, intestine", "setting": "intestine, sc ALZET pumps, 0.2 mg/kg/day (salt)", "value": 2604, "unit": "dpm"}, {"measurement": "MAO-A activity, intestine", "setting": "intestine, sc ALZET pumps, 0.4 mg/kg/day (salt)", "value": 1937, "unit": "dpm"}, {"measurement": "MAO-A activity, intestine", "setting": "intestine, sc ALZET pumps, 0.8 mg/kg/day (salt)", "value": 1708, "unit": "dpm"}, {"measurement": "MAOA inhibitory values in the intestine", "setting": "intestine, sc ALZET pumps, dose from 0.2 to 0.8 mg/kg", "value": "< 50", "unit": "%"}, {"measurement": "MAO-A inhibition in the intestine", "setting": "intestine, given by pumps", "value": "did not inhibit"}, {"measurement": "MAO-A inhibition in the intestine", "setting": "intestine, given orally", "value": "26-37%"}, {"measurement": "hepatic MAO-A inhibition, subcutaneous ALZET pumps compared with oral", "setting": "liver", "value": "higher"}, {"measurement": "MAO-A activity, liver", "setting": "liver, oral, 0.02 mg/kg/day (salt)", "value": 2127, "unit": "dpm"}, {"measurement": "MAO-A activity, liver", "setting": "liver, oral, 0.05 mg/kg/day (salt)", "value": 2199, "unit": "dpm"}, {"measurement": "MAO-A activity, liver", "setting": "liver, oral, 0.1 mg/kg/day (salt)", "value": 1963, "unit": "dpm"}, {"measurement": "MAO-A activity, liver", "setting": "liver, oral, 0.2 mg/kg/day (salt)", "value": 1582, "unit": "dpm"}, {"measurement": "MAO-A activity, liver", "setting": "liver, oral, 0.4 mg/kg/day (salt)", "value": 1058, "unit": "dpm"}, {"measurement": "MAO-A activity, liver", "setting": "liver, oral, 0.8 mg/kg/day (salt)", "value": 681, "unit": "dpm"}, {"measurement": "MAO-A activity, liver", "setting": "liver, sc ALZET pumps, 0.02 mg/kg/day (salt)", "value": 2192, "unit": "dpm"}, {"measurement": "MAO-A activity, liver", "setting": "liver, sc ALZET pumps, 0.05 mg/kg/day (salt)", "value": 2185, "unit": "dpm"}, {"measurement": "MAO-A activity, liver", "setting": "liver, sc ALZET pumps, 0.1 mg/kg/day (salt)", "value": 1930, "unit": "dpm"}, {"measurement": "MAO-A activity, liver", "setting": "liver, sc ALZET pumps, 0.2 mg/kg/day (salt)", "value": 646, "unit": "dpm"}, {"measurement": "MAO-A activity, liver", "setting": "liver, sc ALZET pumps, 0.4 mg/kg/day (salt)", "value": "27 + dpm"}, {"measurement": "MAO-A activity, liver", "setting": "liver, sc ALZET pumps, 0.8 mg/kg/day (salt)", "value": 4, "unit": "dpm"}, {"measurement": "inhibition at 0.02 mg/kg/day", "setting": "[1]", "value": 6, "unit": "%"}, {"measurement": "inhibition at 0.05 mg/kg/day", "setting": "[1]", "value": 15, "unit": "%"}, {"measurement": "inhibition at 0.1 mg/kg/day", "setting": "[1]", "value": 23, "unit": "%"}, {"measurement": "inhibition at 0.2 mg/kg/day", "setting": "[1]", "value": 37, "unit": "%"}, {"measurement": "inhibition at 0.4 mg/kg/day", "setting": "[1]", "value": 61, "unit": "%"}, {"measurement": "inhibition at 0.8 mg/kg/day", "setting": "[1]", "value": 78, "unit": "%"}, {"measurement": "inhibition at 0.02 mg/kg/day", "setting": "[2]", "value": 26, "unit": "%"}, {"measurement": "inhibition at 0.1 mg/kg/day", "setting": "[2]", "value": 37, "unit": "%"}, {"measurement": "inhibition at 0.2 mg/kg/day", "setting": "[2]", "value": 48, "unit": "%"}, {"measurement": "inhibition at 0.8 mg/kg/day", "setting": "[2]", "value": 79, "unit": "%"}, {"measurement": "inhibition at 0.02 mg/kg/day", "setting": "[3]", "value": 8, "unit": "%"}, {"measurement": "inhibition at 0.05 mg/kg/day", "setting": "[3]", "value": 5, "unit": "%"}, {"measurement": "inhibition at 0.1 mg/kg/day", "setting": "[3]", "value": 18, "unit": "%"}, {"measurement": "inhibition at 0.2 mg/kg/day", "setting": "[3]", "value": 31, "unit": "%"}, {"measurement": "inhibition at 0.8 mg/kg/day", "setting": "[3]", "value": 70, "unit": "%"}, {"measurement": "inhibition at 0.02 mg/kg/day", "setting": "[4]", "value": 8, "unit": "%"}, {"measurement": "inhibition at 0.05 mg/kg/day", "setting": "[4]", "value": 21, "unit": "%"}, {"measurement": "inhibition at 0.1 mg/kg/day", "setting": "[4]", "value": 31, "unit": "%"}, {"measurement": "inhibition at 0.2 mg/kg/day", "setting": "[4]", "value": 57, "unit": "%"}, {"measurement": "inhibition at 0.4 mg/kg/day", "setting": "[4]", "value": 76, "unit": "%"}, {"measurement": "inhibition at 0.8 mg/kg/day", "setting": "[4]", "value": 88, "unit": "%"}, {"measurement": "inhibition at 0.02 mg/kg/day", "setting": "[5]", "value": -8, "unit": "%"}, {"measurement": "inhibition at 0.05 mg/kg/day", "setting": "[5]", "value": 1, "unit": "%"}, {"measurement": "inhibition at 0.1 mg/kg/day", "setting": "[5]", "value": -3, "unit": "%"}, {"measurement": "inhibition at 0.2 mg/kg/day", "setting": "[5]", "value": 12, "unit": "%"}, {"measurement": "inhibition at 0.4 mg/kg/day", "setting": "[5]", "value": 34, "unit": "%"}]}
